Where “and” joins values, the source holds several entries; their conditions need not be identical. Equal values may be shown once. Read-outs that look alike come from different tables or passages of the source.
Legend:
Experiment in all cases: SelectScreen kinase panel screening
Assay type in all cases: biochemical
[1] = biological target: RPS6KB1 (p70S6K) (Homo sapiens (Human), UniProt P23443); conditions: for inhibition at 10 µM: RPS6KB1 (p70S6K)
Excerpt: (§1) The complete list of the kinases given in Table 1 and their details can be found on the ThermoFisher website for Biochemical Kinase assays (thermofisher.com/us/en/home/industrial/pharma-biopharma/drug-discovery-development/target-and-lead-identification-and-validation/kinasebiology.html).
RJ1 was taken as the lead structure for the synthesis of several diamide and monoamide derivatives of 4,6-diaminoisoindolin-1,3-dione.

[2] = biological target: ABL1 (Homo sapiens (Human), UniProt P00519)
Excerpt: as §1

[3] = biological target: AXL (Homo sapiens (Human), UniProt P30530)
Excerpt: as §1

[4] = biological target: BRAF (Homo sapiens (Human), UniProt P15056)
Excerpt: as §1

[5] = biological target: BRAF V599E (Homo sapiens (Human), UniProt P15056, V600E)
Excerpt: as §1

[6] = biological target: CDC42 BPA (MRCKA) (Homo sapiens (Human), UniProt Q5VT25)
Excerpt: as §1

[7] = biological target: CDK7/cyclin H/MNAT1 (Homo sapiens (Human), UniProt P50613)
CDK7/cyclin H/MNAT1, sequence (P50613 whole entry): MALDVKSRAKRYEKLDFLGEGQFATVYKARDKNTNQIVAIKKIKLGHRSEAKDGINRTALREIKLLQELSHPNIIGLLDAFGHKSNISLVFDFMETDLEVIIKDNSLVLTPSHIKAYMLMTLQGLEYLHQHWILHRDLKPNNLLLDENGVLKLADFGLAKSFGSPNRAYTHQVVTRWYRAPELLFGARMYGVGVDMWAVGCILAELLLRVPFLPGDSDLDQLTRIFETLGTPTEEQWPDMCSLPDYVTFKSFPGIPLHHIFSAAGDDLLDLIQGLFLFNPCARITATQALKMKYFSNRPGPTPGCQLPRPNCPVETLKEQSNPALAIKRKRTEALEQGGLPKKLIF
CDK7/cyclin H/MNAT1, sequence (P51946 whole entry partner): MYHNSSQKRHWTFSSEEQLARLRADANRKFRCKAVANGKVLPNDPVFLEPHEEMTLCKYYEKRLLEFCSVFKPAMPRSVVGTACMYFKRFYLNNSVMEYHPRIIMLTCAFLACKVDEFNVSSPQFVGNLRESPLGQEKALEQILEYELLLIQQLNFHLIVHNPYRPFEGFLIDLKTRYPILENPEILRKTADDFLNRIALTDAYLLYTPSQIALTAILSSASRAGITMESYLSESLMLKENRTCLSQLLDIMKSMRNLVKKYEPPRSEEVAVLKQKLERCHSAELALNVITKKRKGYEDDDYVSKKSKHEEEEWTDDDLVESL
CDK7/cyclin H/MNAT1, sequence (P51948 whole entry partner): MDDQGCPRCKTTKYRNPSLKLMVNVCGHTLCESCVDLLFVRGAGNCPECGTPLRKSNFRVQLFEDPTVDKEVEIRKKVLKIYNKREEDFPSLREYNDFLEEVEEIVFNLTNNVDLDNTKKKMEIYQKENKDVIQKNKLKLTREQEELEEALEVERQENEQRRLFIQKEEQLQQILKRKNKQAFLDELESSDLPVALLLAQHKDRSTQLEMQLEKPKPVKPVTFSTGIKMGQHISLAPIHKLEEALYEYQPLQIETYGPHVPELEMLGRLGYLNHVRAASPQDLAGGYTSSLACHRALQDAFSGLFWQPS
Excerpt: as §1

[8] = biological target: CHEK1 (CHK1) (Homo sapiens (Human), UniProt O14757)
Excerpt: as §1

[9] = biological target: FES (FPS) (Homo sapiens (Human), UniProt P07332)
Excerpt: as §1

[10] = biological target: FGFR1 (Homo sapiens (Human), UniProt P11362)
Excerpt: as §1

[11] = biological target: FYN (Homo sapiens (Human), UniProt P06241)
Excerpt: as §1

[12] = biological target: GSG2 (Haspin) (Homo sapiens (Human), UniProt Q8TF76)
GSG2 (Haspin), sequence (Q8TF76 whole entry): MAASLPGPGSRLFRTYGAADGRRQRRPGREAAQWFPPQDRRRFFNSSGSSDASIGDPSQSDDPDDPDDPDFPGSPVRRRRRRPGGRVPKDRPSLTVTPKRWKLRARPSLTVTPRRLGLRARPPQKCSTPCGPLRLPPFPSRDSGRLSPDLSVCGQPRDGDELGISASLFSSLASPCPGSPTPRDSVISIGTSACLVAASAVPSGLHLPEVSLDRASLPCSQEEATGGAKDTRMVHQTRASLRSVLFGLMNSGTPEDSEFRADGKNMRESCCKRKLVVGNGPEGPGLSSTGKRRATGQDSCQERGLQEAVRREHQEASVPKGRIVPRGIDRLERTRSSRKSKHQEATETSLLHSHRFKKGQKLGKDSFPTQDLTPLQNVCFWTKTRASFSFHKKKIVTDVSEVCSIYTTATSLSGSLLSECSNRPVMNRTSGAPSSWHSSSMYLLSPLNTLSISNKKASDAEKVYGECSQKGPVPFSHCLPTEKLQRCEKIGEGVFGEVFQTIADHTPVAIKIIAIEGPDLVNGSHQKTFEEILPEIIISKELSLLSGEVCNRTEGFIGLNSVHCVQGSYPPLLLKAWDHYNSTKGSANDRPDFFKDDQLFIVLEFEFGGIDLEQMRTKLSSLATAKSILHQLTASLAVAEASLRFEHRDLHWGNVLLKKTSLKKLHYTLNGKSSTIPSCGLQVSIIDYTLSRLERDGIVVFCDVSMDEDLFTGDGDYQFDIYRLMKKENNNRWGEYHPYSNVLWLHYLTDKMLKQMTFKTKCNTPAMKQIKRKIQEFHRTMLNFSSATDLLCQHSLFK
Excerpt: as §1

[13] = biological target: IKBKB (IKK beta) (Homo sapiens (Human), UniProt O14920)
IKBKB (IKK beta), sequence (O14920 whole entry): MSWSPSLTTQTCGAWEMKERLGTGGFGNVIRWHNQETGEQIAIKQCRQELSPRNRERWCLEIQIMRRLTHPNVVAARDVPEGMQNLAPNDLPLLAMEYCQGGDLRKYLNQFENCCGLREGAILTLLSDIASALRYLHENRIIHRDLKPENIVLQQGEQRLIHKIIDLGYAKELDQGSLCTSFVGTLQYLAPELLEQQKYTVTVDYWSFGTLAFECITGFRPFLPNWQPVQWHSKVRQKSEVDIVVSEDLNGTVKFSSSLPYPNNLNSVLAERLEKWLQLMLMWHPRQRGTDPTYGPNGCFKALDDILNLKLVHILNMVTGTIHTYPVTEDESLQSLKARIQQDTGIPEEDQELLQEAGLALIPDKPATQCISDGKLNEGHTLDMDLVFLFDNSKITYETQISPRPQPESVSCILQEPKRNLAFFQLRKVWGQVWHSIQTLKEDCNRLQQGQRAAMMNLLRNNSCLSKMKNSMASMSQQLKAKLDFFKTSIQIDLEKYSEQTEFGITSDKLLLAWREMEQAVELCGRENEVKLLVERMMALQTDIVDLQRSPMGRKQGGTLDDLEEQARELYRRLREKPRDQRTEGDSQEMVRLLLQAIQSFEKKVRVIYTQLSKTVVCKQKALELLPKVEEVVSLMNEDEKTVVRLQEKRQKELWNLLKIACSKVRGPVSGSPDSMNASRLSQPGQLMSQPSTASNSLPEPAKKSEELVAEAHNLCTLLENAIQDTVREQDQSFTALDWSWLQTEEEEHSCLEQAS
Excerpt: as §1

[14] = biological target: JAK2 JH1 JH2 V617F (Homo sapiens (Human), UniProt O60674, V617F)
JAK2 JH1 JH2 V617F, sequence (O60674 532-1132 V617F): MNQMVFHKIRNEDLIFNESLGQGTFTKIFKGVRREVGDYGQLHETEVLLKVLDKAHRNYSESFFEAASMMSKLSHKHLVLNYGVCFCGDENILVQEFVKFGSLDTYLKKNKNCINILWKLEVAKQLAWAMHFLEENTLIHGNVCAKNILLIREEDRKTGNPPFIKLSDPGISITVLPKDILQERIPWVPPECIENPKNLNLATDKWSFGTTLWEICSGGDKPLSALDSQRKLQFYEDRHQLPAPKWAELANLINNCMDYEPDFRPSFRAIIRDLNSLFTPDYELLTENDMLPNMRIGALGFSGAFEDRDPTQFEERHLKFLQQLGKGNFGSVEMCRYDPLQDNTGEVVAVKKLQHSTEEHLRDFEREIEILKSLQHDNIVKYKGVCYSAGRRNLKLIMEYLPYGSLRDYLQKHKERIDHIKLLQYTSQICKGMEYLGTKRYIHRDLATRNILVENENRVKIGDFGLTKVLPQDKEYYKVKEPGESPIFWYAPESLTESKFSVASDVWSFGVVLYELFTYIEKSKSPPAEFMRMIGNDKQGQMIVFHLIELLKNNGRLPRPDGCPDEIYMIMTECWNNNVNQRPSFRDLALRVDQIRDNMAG
Excerpt: as §1

[15] = biological target: KIT (Homo sapiens (Human), UniProt P10721)
Excerpt: as §1

[16] = biological target: LYN A (Homo sapiens (Human), UniProt P07948)
Excerpt: as §1

[17] = biological target: MAPK14 (p38 alpha) Direct (Homo sapiens (Human), UniProt Q16539)
Excerpt: as §1

[18] = biological target: MET (cMet) (Homo sapiens (Human), UniProt P08581)
Excerpt: as §1

[19] = biological target: PAK4 (Homo sapiens (Human), UniProt O96013)
Excerpt: as §1

[20] = biological target: PDGFRB (PDGFR beta) (Homo sapiens (Human), UniProt P09619)
Excerpt: as §1

[21] = biological target: PLK1 (Homo sapiens (Human), UniProt P53350)
Excerpt: as §1

[22] = biological target: PRKCB2 (PKC beta II) (Homo sapiens (Human), UniProt P05771)
PRKCB2 (PKC beta II), sequence (P05771 other isoform, or with tags, fused parts or gaps): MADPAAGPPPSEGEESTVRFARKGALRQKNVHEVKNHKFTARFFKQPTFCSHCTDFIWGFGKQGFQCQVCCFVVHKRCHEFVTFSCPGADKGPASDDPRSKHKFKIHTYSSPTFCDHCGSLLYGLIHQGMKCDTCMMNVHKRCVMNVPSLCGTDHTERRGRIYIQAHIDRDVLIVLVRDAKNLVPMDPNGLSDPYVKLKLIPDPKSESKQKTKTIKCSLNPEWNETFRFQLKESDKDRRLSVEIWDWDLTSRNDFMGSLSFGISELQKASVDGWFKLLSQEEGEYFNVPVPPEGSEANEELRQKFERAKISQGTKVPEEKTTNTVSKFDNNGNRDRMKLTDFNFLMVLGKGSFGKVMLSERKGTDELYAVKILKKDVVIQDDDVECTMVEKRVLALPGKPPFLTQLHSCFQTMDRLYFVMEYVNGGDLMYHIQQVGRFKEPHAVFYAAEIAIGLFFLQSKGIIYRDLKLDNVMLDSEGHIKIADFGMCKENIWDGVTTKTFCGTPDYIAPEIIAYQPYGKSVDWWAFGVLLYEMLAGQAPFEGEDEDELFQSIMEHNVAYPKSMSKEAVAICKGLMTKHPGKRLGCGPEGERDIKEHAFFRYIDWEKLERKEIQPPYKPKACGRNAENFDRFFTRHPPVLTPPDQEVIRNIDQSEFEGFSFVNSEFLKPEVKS
Excerpt: as §1

[23] = biological target: PTK2 (FAK) (Homo sapiens (Human), UniProt Q05397)
Excerpt: as §1

[24] = biological target: PTK6 (Brk) (Homo sapiens (Human), UniProt Q13882)
PTK6 (Brk), sequence (Q13882 whole entry): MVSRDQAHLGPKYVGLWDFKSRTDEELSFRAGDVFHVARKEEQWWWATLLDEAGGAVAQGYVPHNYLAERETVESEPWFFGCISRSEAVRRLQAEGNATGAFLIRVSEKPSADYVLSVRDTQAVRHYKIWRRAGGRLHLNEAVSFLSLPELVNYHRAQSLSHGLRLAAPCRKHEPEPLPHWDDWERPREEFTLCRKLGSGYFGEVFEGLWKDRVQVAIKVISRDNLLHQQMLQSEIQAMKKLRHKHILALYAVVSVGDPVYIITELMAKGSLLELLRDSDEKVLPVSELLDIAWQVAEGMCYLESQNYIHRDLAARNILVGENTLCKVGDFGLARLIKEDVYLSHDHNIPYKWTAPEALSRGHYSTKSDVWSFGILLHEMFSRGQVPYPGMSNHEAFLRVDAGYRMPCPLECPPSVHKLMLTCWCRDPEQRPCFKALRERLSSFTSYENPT
Excerpt: as §1

[25] = biological target: RET (Homo sapiens (Human), UniProt P07949)
Excerpt: as §1

[26] = biological target: ROCK1 (Homo sapiens (Human), UniProt Q13464)
Excerpt: as §1

[27] = biological target: SPHK1 (Homo sapiens (Human), UniProt Q9NYA1); conditions: read-out: % Inhibition class
Excerpt: as §1

[28] = biological target: TEK (Tie2) (Homo sapiens (Human), UniProt Q02763)
Excerpt: as §1

RPS6KB1 (p70S6K), sequence (P23443 whole entry): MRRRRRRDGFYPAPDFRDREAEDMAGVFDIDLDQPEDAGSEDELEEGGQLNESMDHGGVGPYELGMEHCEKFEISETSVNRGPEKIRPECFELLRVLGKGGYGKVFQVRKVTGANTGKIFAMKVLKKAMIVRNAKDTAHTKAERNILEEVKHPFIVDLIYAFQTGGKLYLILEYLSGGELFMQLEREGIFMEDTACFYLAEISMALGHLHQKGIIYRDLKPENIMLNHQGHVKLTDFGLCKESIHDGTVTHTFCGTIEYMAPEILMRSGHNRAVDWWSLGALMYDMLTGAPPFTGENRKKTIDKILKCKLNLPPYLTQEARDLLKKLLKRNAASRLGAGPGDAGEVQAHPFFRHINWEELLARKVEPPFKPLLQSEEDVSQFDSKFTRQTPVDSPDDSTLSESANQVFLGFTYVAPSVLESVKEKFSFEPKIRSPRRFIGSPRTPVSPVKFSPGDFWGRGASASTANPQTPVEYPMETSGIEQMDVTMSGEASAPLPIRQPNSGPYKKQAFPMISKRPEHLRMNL

- inhibition at 10 µM ([1]; read-out: % Inhibition): 80%
- inhibition at 10 µM ([1]; read-out: % Inhibition class): ≥ 80%
- selectivity against a panel of 120 disease relevant kinases ([1]; SelectScreen panel): RPS6K1-selective inhibitor
- inhibition at 10 µM ([2]; read-out: % Inhibition): 59%
- inhibition at 10 µM ([2]; read-out: % Inhibition class): 40 to 80%
- inhibition at 10 µM ([3]; read-out: % Inhibition): 10%
- inhibition at 10 µM ([3]; read-out: % Inhibition class): < 40%
- inhibition at 10 µM ([4]; read-out: % Inhibition): 19%
- inhibition at 10 µM ([4]; read-out: % Inhibition class): < 40%
- inhibition at 10 µM ([5]; read-out: % Inhibition): 22%
- inhibition at 10 µM ([5]; read-out: % Inhibition class): < 40%
- inhibition at 10 µM ([6]; read-out: % Inhibition): 0%
- inhibition at 10 µM ([6]; read-out: % Inhibition class): < 40%
- % Inhibition ([7]; 10 μM): 1% and −1%
- inhibition at 10 µM ([7]; read-out: % Inhibition class): < 40%
- inhibition at 10 µM ([8]; read-out: % Inhibition): 72%
- inhibition at 10 µM ([8]; read-out: % Inhibition class): 40 to 80%
- inhibition at 10 µM ([9]; read-out: % Inhibition): 36%
- inhibition at 10 µM ([9]; read-out: % Inhibition class): < 40%
- inhibition at 10 µM ([10]; read-out: % Inhibition): 51%
- inhibition at 10 µM ([10]; read-out: % Inhibition class): 40 to 80%
- inhibition at 10 µM ([11]; read-out: % Inhibition): 17%
- inhibition at 10 µM ([11]; read-out: % Inhibition class): < 40%
- % Inhibition ([12]; 10 μM): 34% and 65%
- inhibition at 10 µM ([12]; read-out: % Inhibition class): < 40%
- inhibition at 10 µM ([13]; read-out: % Inhibition): 16%
- inhibition at 10 µM ([13]; read-out: % Inhibition class): < 40%
- inhibition at 10 µM ([14]; read-out: % Inhibition): 6%
- inhibition at 10 µM ([14]; read-out: % Inhibition class): < 40%
- inhibition at 10 µM ([15]; read-out: % Inhibition): 7%
- inhibition at 10 µM ([15]; read-out: % Inhibition class): < 40%
- inhibition at 10 µM ([16]; read-out: % Inhibition): 12%
- inhibition at 10 µM ([16]; read-out: % Inhibition class): < 40%
- inhibition at 10 µM ([17]; read-out: % Inhibition): 2%
- inhibition at 10 µM ([17]; read-out: % Inhibition class): < 40%
- inhibition at 10 µM ([18]; read-out: % Inhibition): -4%
- inhibition at 10 µM ([18]; read-out: % Inhibition class): < 40%
- inhibition at 10 µM ([19]; read-out: % Inhibition): 29%
- inhibition at 10 µM ([19]; read-out: % Inhibition class): < 40%
- inhibition at 10 µM ([20]; read-out: % Inhibition): 5%
- inhibition at 10 µM ([20]; read-out: % Inhibition class): < 40%
- inhibition at 10 µM ([21]; read-out: % Inhibition): 9%
- inhibition at 10 µM ([21]; read-out: % Inhibition class): < 40%
- inhibition at 10 µM ([22]; read-out: % Inhibition): 23%
- inhibition at 10 µM ([22]; read-out: % Inhibition class): < 40%
- inhibition at 10 µM ([23]; read-out: % Inhibition): 26%
- inhibition at 10 µM ([23]; read-out: % Inhibition class): < 40%
- inhibition at 10 µM ([24]; read-out: % Inhibition): 4%
- inhibition at 10 µM ([24]; read-out: % Inhibition class): < 40%
- inhibition at 10 µM ([25]; read-out: % Inhibition): 79%
- inhibition at 10 µM ([25]; read-out: % Inhibition class): 40 to 80%
- inhibition at 10 µM ([26]; read-out: % Inhibition): 21%
- inhibition at 10 µM ([26]; read-out: % Inhibition class): < 40%
- inhibition at 10 µM [27]: < 40%
- inhibition at 10 µM ([28]; read-out: % Inhibition): 20%
- inhibition at 10 µM ([28]; read-out: % Inhibition class): < 40%
SMILES: Nc1cc(N)c2c(c1)C(=O)NC2=O [RJ1, 4,6-diaminoisoindoline-1,3-dione]
